From paper PMC9892719, “High-throughput screening method for discovering CatSper inhibitors using membrane depolarization caused by external calcium chelation and fluorescent cell barcoding” (Frontiers in Cell and Developmental Biology, 2023)

Biological target: T1, CatSper (Mus musculus, UniProt A2ARP9+Q80W99+Q8BVN3+Q91ZR5)
T1 construct: gene Catsper1; native channel complex in live cauda epididymal sperm; pore of four homologous subunits CatSper 1-4 plus auxiliary subunits; with Cation channel sperm-associated auxiliary subunit beta; Cation channel sperm-associated auxiliary subunit gamma 2; Cation channel sperm-associated auxiliary subunit delta; Cation channel sperm-associated auxiliary subunit epsilon; Cation channel sperm-associated auxiliary subunit zeta; Cation channel sperm-associated targeting subunit tau; Cation channel sperm-associated auxiliary subunit TMEM262; Solute carrier organic anion transporter family member 6C1; Cation channel sperm-associated auxiliary subunit TMEM249
Assay: EGTA-induced Na+ depolarization of live sperm, DiSC3([…]) fluorescence, flow cytometry and spectrofluorometry
Type: cell-based
Settings: non-capacitated sperm, NC TYH medium pH 7.4, 3.5 mM EGTA (free Ca2+ 138 nM)

O=C(c1cccs1)c1no[n+]([O-])c1C(=O)c1cccs1 [HC-056456]
block of EGTA-induced depolarization at 10 μM: HC-056456 inhibits CatSper in a concentration-dependent manner
